Experimental findings from article PMC10179701, “Towards Protection of Nucleic Acids from Herbicide Attack: Self-Assembly of Betaines Based on Pillar[5]arene with Glyphosate and DNA” (International Journal of Molecular Sciences, 2023) are described below.

Values joined by “and” are separate entries in the source; they are usually repeats but may differ in a detail not shown here. Equal values may be shown once.

Data set [1] is described as follows: Dynamic light scattering of macrocycle aggregates in water. The note with it: H2O, 298 K. It is filed as physicochemical. On the procedure: The next stage of the work was the study of aggregation properties of both previously synthesized ester derivatives of amino acids 1 and 2, and macrocyclic betaine derivatives 3 and 4 by dynamic light scattering (DLS). The study was carried out in water in the 1 × 10^–6–1 × 10^–4 M concentration range (Figures S11–S22). The size of associates increases with decreasing macrocycle 1 concentration in solution (Table 1). A different pattern is observed for betaine derivative 3. Thus, the particles become coarser, and the polydispersity index (PDI) of the systems increased with an increase in compound 3 concentration, which is probably due to the formation of β-sheets by oligopeptide substituents. The presence of two oppositely charged fragments in one substituent leads to the fact that compound 3 becomes similar to surfactant molecules in terms of its aggregation properties.

The nature of data set [2]: Dynamic light scattering of (macrocycle-DNA)-GIS associates in Tris-HCl buffer. It is filed as physicochemical. The note with it: CPA 3 × 10^–6 M, CDNA 2.5 × 10^–7 M, CGIS 3 × 10^–6 M. The source says:
The obtained (macrocycle-DNA)-GIS associates were also studied by DLS in Tris-HCl buffer solution. The concentration of each component of the mixture was the same as in the experiments performed by UV-Vis spectroscopy (CPA = 3 × 10^–6 M, CDNA = 2.5 × 10^–7 M, CGIS = 3 × 10^–6 M). The formation of the stable aggregates (d = 183 ± 5 nm, PDI = 0.19, and ζ = –22.2 mV) was found only for the system based on macrocycle 2 with phenylalanine ester fragments (Figure S33). […] This, apparently, leads to the formation of stable aggregates in the case of the three-component (macrocycle-DNA)-GIS systems. The associate’s formation for three-component (2–DNA)–GIS system was additionally confirmed by TEM (Figure 8). It was shown that spherical nanosized particles with sizes close to those determined by DLS are formed.

The nature of data set [3]: Transmission electron microscopy of aggregates. It is filed as physicochemical. The note with it: 1 × 10^−4 M in water. The text has this: The nanosized aggregates formed by macrocycle 2 were studied by transmission electron microscopy (TEM). The formation of the spherical nanosized particles with sizes close to those determined by DLS was confirmed.
Data set [4] has as its system A549 cells. Description: MTT test, A549 cells. On the procedure:
(§1) The next stage of this work was the study of pillar[5]arenes 1–4 ability to inhibit the viability and proliferative activity of embryonic lung epithelial (LEC) and human lung adenocarcinoma (A549) cells using the MTT test.
(§2) Further, the ability of GIS to inhibit the viability and proliferative activity of LEC and A549 cells was studied by the MTT test. […] The average inhibitory concentration (IC50) was calculated for GIS (Table 3). […]
(§3) 1.6. Cytotoxicity of pillar[5]arenes 1–4, GIS and their mixtures on A549 and LEC Cell Lines […]
(§4) activity of LEC cells and A549 cells was investigated using the MTT test according to [2]. A549 – human alveolar adenocarcinoma cell line (ATCC, Rockville, Maryland, USA) and cow embryo lung epithelial (LEC) cells (Animal Cell Culture Collection of Russian Academy of Agricultural Science, Kazan, Russia) were cultured in DMEM (GIBCO, Waltham, MA, USA) medium supplemented with 10% serum and 100 units/mL of penicillin (PanEco, Moscow, Russia) and streptomycin (PanEco, Moscow, Russia) in a humidified atmosphere with 5% CO2 at 37 °C. Cells were seeded in 96‐well plates at a concentration of 10^4 cells/well. After 24 h of cultivation, the medium was removed from the wells and replaced with a fresh one with the addition of the test substances. The volume of the culture medium in the wells was 100
(§5) μL. After 24 h incubation of cells in the presence of substances, the medium in the wells was replaced with a fresh one containing MTT reagent at a final concentration of 0.5 mg/mL. The cells were incubated with MTT for 4 h at 37 °C in an atmosphere of 5% CO2. Then, the medium was aspirated from the wells and 100 μL of dimethyl sulfoxide was added. Probes were incubated at 37 °C for 15 min in the dark for the formazan crystals to dissolve. The optical density of the formazan solution in the wells was measured using a plate reader (BioRad xMarkTM Microplate Spectrophotometer, USA) at a wavelength of 570 nm.
(§6) Three series of experiments were carried out with at least 8 replications for each variant in the series. […]

In data set [5] the test system is LEC cells. Put plainly: MTT test, LEC cells. On the procedure: as §1, §2, §3, §4, §5, §6
On the technique in general: Formazan colour is commonly taken as a measure of viable cells.

Data set [6] concerns A549 cells. Description: Apoptosis induction by flow cytometry (DiOC6/PI), A549 cells. Type of data set: cell-based, human. The note with it: A549, 25 μg/mL, 24 h. On the procedure:
(§7) The cytotoxic effect of pillar[5]arene 2 containing ester fragments of phenylalanine is probably due to the stable aggregates’ formation (Table 1). […] The agent concentration of 25 μg/mL was chosen for the experiment. […] The apoptosis-inducing effect of compound 2 on A549 and LEC cells turned out approximately the same. […]
(§8) buffer solution. The UV spectra of the solutions were then recorded. The stability constant of complex was calculated by Bindfit. Three independent experiments were carried out for each series. […]
(§9) volume of 3 mL with Tris‐HCl buffer solution. The UV spectra of the solutions were then recorded. The stability constant of each complex was calculated by Bindfit. Three independent experiments were carried […]
(§10) stability constant of complex was calculated by Bindfit. Three independent experiments were carried out […]
(§11) humidified atmosphere with 5% CO2 at 37 °C. […]
(§12) fresh one with the addition of the test substances.
(§13) Then, the medium was aspirated from the wells and 100 μL of dimethyl sulfoxide was added. […]
(§14) the formazan crystals to dissolve.
(§15) BD FACSCanto II flow cytometer. […]
(§16) humidified atmosphere with 5% CO2. […]
(§17) substances. […] After 24 h of incubation cells were […]

Data set [7] deals with LEC cells. Put plainly: Apoptosis induction by flow cytometry (DiOC6/PI), LEC cells. Type of data set: cell-based, cow. The note with it: 25 μg/mL, 24 h. The method, then: as §7, §8, §9, §10, §11, §12, §13, §14, §15, §16, §17
In general terms: Flow cytometry measures light scatter and fluorescence of single cells or particles in a stream.

For data set [8], the system named is A549 cells. Description: MTT assay, combined action of macrocycles with GIS on A549 cells. The note with it: A549, pillararene 1 × 10^–5 M with GIS 3.47 × 10^–2 M. It is filed as cell-based, human. On the procedure: The ability to inhibit the viability and proliferative activity of A549 cells of macrocycles 1–4 in the presence of GIS was studied using the MTT assay. […] The developed approach opens up the possibility of creating pillar[5]arene-based herbicide antidotes. […]
as §12
Then, the medium was aspirated from the wells
and 100 μL of dimethyl sulfoxide was added.
the formazan crystals to dissolve. […]
as §17

Take `CCOC(=O)[C@H](Cc1ccccc1)NC(=O)C[N+](C)(C)CCCNC(=O)COc1cc2c(OCC(=O)NCCC[N+](C)(C)CC(=O)N[C@@H](Cc3ccccc3)C(=O)OCC)cc1Cc1cc(OCC(=O)NCCC[N+](C)(C)CC(=O)N[C@@H](Cc3ccccc3)C(=O)OCC)c(cc1OCC(=O)NCCC[N+](C)(C)CC(=O)N[C@@H](Cc1ccccc1)C(=O)OCC)Cc1cc(OCC(=O)NCCC[N+](C)(C)CC(=O)N[C@@H](Cc3ccccc3)C(=O)OCC)c(cc1OCC(=O)NCCC[N+](C)(C)CC(=O)N[C@@H](Cc1ccccc1)C(=O)OCC)Cc1cc(OCC(=O)NCCC[N+](C)(C)CC(=O)N[C@@H](Cc3ccccc3)C(=O)OCC)c(cc1OCC(=O)NCCC[N+](C)(C)CC(=O)N[C@@H](Cc1ccccc1)C(=O)OCC)Cc1cc(OCC(=O)NCCC[N+](C)(C)CC(=O)N[C@@H](Cc3ccccc3)C(=O)OCC)c(cc1OCC(=O)NCCC[N+](C)(C)CC(=O)N[C@@H](Cc1ccccc1)C(=O)OCC)C2.[Br-].[Br-].[Br-].[Br-].[Br-].[Br-].[Br-].[Br-].[Br-].[Br-]` [Compound 2]: the “polydispersity index (PDI)” value in data set [1] (1 × 10^–4 M) is given as 0.24; in data set [1] (1 × 10^–5 M) it was 0.21; in data set [1] (1 × 10^–6 M) it was 0.28. For the same molecule, the “size of aggregates d” value in data set [1] (1 × 10^–4 M) is 179 nm and 179 ± 8 nm; in data set [1] (1 × 10^–5 M), 157 ± 2 nm; in data set [1] (1 × 10^–6 M), 144 nm and 144 ± 7 nm. The “zeta potential ζ” value is on record as “+15.9 mV” in data set [1] (1 × 10^–4 M), “+31.6 mV” in data set [1] (1 × 10^–5 M) and “+12.5 mV” in data set [1] (1 × 10^–6 M). Moreover, the “PDI of three-component (macrocycle-DNA)-GIS system” value in data set [2] is listed as 0.19. Also, the “size of aggregates d of three-component (macrocycle-DNA)-GIS system” value in data set [2] is 183 ± 5 nm. Moreover, the “zeta potential ζ of three-component (macrocycle-DNA)-GIS system” value in data set [2] is “–22.2 mV”. For the same molecule, the “average diameter of particles (TEM)” value in data set [3] came out at 50 nm. The “concentration at which viability was reduced” value with A549 cells [4] (A549) and in the data set with LEC cells [5] was ≥ 5000 ng/mL in each case. Moreover, the IC50 (in general, the concentration that inhibits the measured activity by half) in the data set on A549 cells [4] (A549, MTT, 24 h) turned out to be 29.67 µg/mL; with LEC cells [5] (MTT, 24 h), 28.16 µg/mL. For the same molecule, the “proportion of living cells (Live, percentage of stained cells)” value with A549 cells [6] was determined as 74.8%; in the data set with LEC cells [7] it was 72.7%. Further, the “change of toxicity on combined action with GIS” value with A549 cells [8] is “increase in toxicity”.
